Target: yHsp90 (yeast Hsp90, Hsp82) (Saccharomyces cerevisiae, UniProt P02829)
Test: Kd determination
Format: binding

Sequence of yHsp90 (yeast Hsp90, Hsp82) (P02829 whole entry): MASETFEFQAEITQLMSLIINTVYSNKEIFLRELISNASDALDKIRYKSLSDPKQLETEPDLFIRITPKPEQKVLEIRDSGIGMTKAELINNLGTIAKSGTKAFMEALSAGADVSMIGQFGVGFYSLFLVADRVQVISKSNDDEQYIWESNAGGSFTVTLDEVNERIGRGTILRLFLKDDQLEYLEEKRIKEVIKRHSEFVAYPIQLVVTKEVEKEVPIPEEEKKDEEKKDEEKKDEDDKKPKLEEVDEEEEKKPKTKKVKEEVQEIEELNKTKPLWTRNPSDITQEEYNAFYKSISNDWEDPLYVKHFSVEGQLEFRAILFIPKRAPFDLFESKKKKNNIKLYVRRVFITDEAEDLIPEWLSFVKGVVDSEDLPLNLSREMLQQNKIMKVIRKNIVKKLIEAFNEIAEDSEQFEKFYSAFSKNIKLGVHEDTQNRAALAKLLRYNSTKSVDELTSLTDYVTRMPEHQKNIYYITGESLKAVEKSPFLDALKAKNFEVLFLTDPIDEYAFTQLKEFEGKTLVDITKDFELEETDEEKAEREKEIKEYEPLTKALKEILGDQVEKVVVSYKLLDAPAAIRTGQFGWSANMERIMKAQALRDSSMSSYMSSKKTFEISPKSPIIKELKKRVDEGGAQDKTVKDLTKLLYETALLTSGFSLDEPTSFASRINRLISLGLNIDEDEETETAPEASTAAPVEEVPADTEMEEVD

Nc1ncnc2c1ncn2[C@@H]1O[C@H](CO[P@](=O)(O)O[P@](=O)(O)NP(=O)(O)O)[C@@H](O)[C@H]1O [AMPPNP]
Kd: Kd of each protein for AMPPNP is shown in inset.
